In one assay the test system is LNCaP-K14 cells. Put plainly: Transwell cell migration assay. The assay is classed as cell-based, human. The note with it: 1 μM ABP, 24 h; KLK14 expression induced with Dox, 10 nM DHT. The method, then: Figure 6 Dissecting the KLK activome in LNCaP cells. (A) Structures of fluorescent ABPs 42, 20, and 43 for KLK2, KLK3, and KLK14, respectively. (B) KLK activity profiling by in-gel fluorescence of conditioned media obtained from LNCaP-WT, LNCaP-mK14, and LNCaP-K14 cells following treatment with DHT (10 nM), Dox (100 ng/mL), and the appropriate biotinylated ABP using fluorescent ABPs 20, 42 and 43. See Figure S26 for blot and gel quantification. (C) Assessment of KLK activity inhibition on LNCaP cell migration. LNCaP-K14 cells were cultured in serum-free RPMI media supplemented with 10 nM DHT ± Dox (100 ng/mL) for 24 h. Cells were added to transwell inserts (100 000 cells in 100 μL of serum-free RPMI), and after 4 h the appropriate ABP was added. Cultures were incubated for a further 24 h before the number of migrating cells was quantified. […]
each library member was 50 μM and the total reaction volume was 50 μL. The excitation wavelength was 355 nm, and the emission wavelength was 460 nm. An amount of 1 μL of each HyCoSuL peptide was added into a well in a 96-well plate containing 24 μL of KLK buffer.
Next, 25 μL of the active KLK enzyme was added to each well and substrate hydrolysis was recorded in kinetic mode at RT for at least 10 min. The linear portion of each progress curve was used to calculate relative fluorescence units per second (RFUs-1). […] Specificity was calculated by normalizing RFUs-1 to the highest value, which was set at 100 %. […]
Determination of kcat/KM: The KLK2 substrate and KLK14 substrate were serially diluted in the appropriate KLK assay buffer and 25 μL was added to the wells of a 96-well plate. Next, 25 μL of KLK2 (1.5 nM) or KLK14 (75 pM) was added to each well containing the substrate and the enzyme-substrate reaction was monitored for at least 10 min. The linear portion of each progress curve was used to calculate relative fluorescence units per second (RFUs-1).
KM, kcat, and kcat/KM parameters were determined by nonlinear regression in GraphPad Prism 5 (GraphPad Software). […]

Assay [1] has as its system KLK activome (KLK2, KLK3, KLK14) in LNCaP-K14 cells. Put plainly: Residual KLK activity in conditioned media of bABP-treated LNCaP-K14 cells, read out with fABP cocktail. The note with it: 1 μM bABP co-incubated with 10 nM DHT and 200 nM Dox for 48 h. It counts as cell-based, human. The text has this: The data presented above provide evidence that KLK activity in PCa is regulated by the AR at a level beyond simple changes in expression and raise the possibility that KLK activities may be actionable targets for therapeutic intervention at different disease stages, in particular during PCa metastasis to bone. However, KLKs are predicted to form complex proteolytic networks and it is often not clear which protease(s) should be inhibited for maximum phenotypic response in a particular disease setting. […] To enable dissection of the PCa KLK activome directly in LNCaP cells, we further expanded the KLK probe toolbox by synthesizing KLK2_fABP (42) and KLK14_fABP (43) (Figure 6A and Figure S2), fluorescent ABP (fABP) analogues of KLK2_bABP and KLK14_bABP bearing dyes fluorescing at discrete wavelengths, which retain excellent potency and selectivity for KLK2 and KLK14, respectively (Figure S25). KLK2_fABP and KLK14_fABP were combined with KLK3-selective fABP 21 (KLK3_fABP) in an “fABP cocktail” to a final concentration of 1 μM each and incubated for 20 min with CM obtained from LNCaP-WT, LNCaP-mK14, or LNCaP-K14 cells following 48 h treatment with 10 nM DHT to enable simultaneous multicolor readout of KLK2, KLK3, and KLK14 activity. […] However, upon Dox-induced KLK14 expression in DHT-treated LNCaP-K14 cells a significant increase in the activity of all three KLKs was evident (see Figure 6B and Figure S26 for gel quantification). […] Residual KLK activity in CM was then assessed using the fABP cocktail (Figure 6B).
Figure 6 Dissecting the KLK activome in LNCaP cells. […] (B) KLK activity profiling by in-gel fluorescence of conditioned media obtained from LNCaP-WT, LNCaP-mK14, and LNCaP-K14 cells following treatment with DHT (10 nM), Dox (100 ng/mL), and the appropriate biotinylated ABP using fluorescent ABPs 20, 42 and 43. See Figure S26 for blot and gel quantification. […] Cultures were incubated for a further 24 h before the number of migrating cells was quantified.

On to `CCC[C@H](NC(=O)[C@H](CCC(N)=O)NC(=O)[C@H](CC(N)=O)NC(=O)CCCCCNC(=O)CCCC[C@@H]1SC[C@@H]2NC(=O)N[C@@H]21)C(=O)NC(c1ccc(C(N)=O)cc1)P(=O)(Oc1ccccc1)Oc1ccccc1` (stereo partly drawn) [compound 20], for which the “effect on number of migrating cells” value in the assay with LNCaP-K14 cells was “no significant effect”. The “effect on activity of the other KLKs” value in assay [1] is listed as “does not affect the activity of other KLKs”.

For `CC(C)(C)C(NC(=O)CCCCCNC(=O)CCCCC1SCC2NC(=O)NC21)C(=O)NC(CCN)C(=O)NC(Cc1ccc(O)cc1)C(=O)NC(c1ccc(NC(=N)N)cc1)P(=O)(Oc1ccccc1)Oc1ccccc1` (stereo not drawn) [compound 31, Tle-Dab-Tyr-Arg], the “effect on number of migrating cells” value with LNCaP-K14 cells is on record as “no significant effect”. Also, the “effect on activity of the other KLKs” value in assay [1] was “does not affect the activity of other KLKs”.

Regarding `CCC(NC(=O)C(CCN)NC(=O)C(Cc1ccc2ccccc2c1)NC(=O)CCCCCNC(=O)CCCCC1SCC2NC(=O)NC21)C(=O)NC(c1ccc(NC(=N)N)cc1)P(=O)(Oc1ccccc1)Oc1ccccc1` (stereo not drawn) [compound 39, 2Nal-Dab-Abu-Arg], the “effect on number of migrating cells” value in the assay with LNCaP-K14 cells is “nullified”. Moreover, the “effect on activity of the other KLKs” value in assay [1] is on record as “significant decrease”.

(Values after article PMC9282638, “A Suite of Activity-Based Probes To Dissect the KLK Activome in Drug-Resistant Prostate Cancer” (Journal of the American Chemical Society, 2021).)
